Measured values: ChEMBL document CHEMBL5096171, “Synthesis and Biological Evaluation of PSMA Ligands with Aromatic Residues and Fluorescent Conjugates Based on Them” (J Med Chem, 2021)

Key:
LNCaP = experiment: Cytotoxicity against human LNCaP cells assessed as reduction in cell viability incubated for 5 days by MTT assay; assay type: functional; conditions: 120 h, time 5 day
[1] = Drug uptake in human PC-3 cells assessed as drug accumulation by measuring fluorescence signal at 4 uM incubated for 30 mins by flow cytometry; assay type: ADME, cell-based; conditions: pc-3, 0.5 h
[2] = Drug uptake in human LNCaP cells assessed as drug accumulation by measuring fluorescence signal at 4 uM incubated for 30 mins by flow cytometry; assay type: ADME, cell-based; conditions: 0.5 h
[3] = Drug uptake in human 22Rv1 cells assessed as drug accumulation by measuring fluorescence signal at 4 uM incubated for 30 mins by flow cytometry; assay type: ADME, cell-based; conditions: cwr22r, 0.5 h
PC-3 = experiment: Cytotoxicity against human PC-3 cells assessed as reduction in cell viability incubated for 5 days by MTT assay; assay type: functional; conditions: PC-3, 120 h, time 5 day
A549 = experiment: Cytotoxicity against human A549 cells assessed as cell growth inhibition incubated for 5 days by MTT assay; assay type: functional; conditions: A549, 120 h, time 5 day
[4] = Cytotoxicity against HEK293T cells assessed as cell growth inhibition incubated for 5 days by MTT assay; assay type: toxicity, cell-based, HEK-293T; conditions: human, time 5 day
[5] = target: Glutamate carboxypeptidase 2 (Homo sapiens, UniProt Q04609); experiment: Inhibition of PSMA derived from human LNCaP cell lysate assessed as inhibition of NAAG hydrolysis incubated for 2 hrs in presence of NAAG by Amplex Red assay; assay type: subcellular
MCF7 = experiment: Cytotoxicity against human MCF7 cells assessed as cell growth inhibition incubated for 5 days by MTT assay; assay type: functional; conditions: MCF7, 120 h, time 5 day
[6] = Cytotoxicity against human WI-38 VA13 cells assessed as cell growth inhibition incubated for 5 days by MTT assay; assay type: toxicity, cell-based; conditions: time 5 day

Chain of Glutamate carboxypeptidase 2 (Q04609 whole entry): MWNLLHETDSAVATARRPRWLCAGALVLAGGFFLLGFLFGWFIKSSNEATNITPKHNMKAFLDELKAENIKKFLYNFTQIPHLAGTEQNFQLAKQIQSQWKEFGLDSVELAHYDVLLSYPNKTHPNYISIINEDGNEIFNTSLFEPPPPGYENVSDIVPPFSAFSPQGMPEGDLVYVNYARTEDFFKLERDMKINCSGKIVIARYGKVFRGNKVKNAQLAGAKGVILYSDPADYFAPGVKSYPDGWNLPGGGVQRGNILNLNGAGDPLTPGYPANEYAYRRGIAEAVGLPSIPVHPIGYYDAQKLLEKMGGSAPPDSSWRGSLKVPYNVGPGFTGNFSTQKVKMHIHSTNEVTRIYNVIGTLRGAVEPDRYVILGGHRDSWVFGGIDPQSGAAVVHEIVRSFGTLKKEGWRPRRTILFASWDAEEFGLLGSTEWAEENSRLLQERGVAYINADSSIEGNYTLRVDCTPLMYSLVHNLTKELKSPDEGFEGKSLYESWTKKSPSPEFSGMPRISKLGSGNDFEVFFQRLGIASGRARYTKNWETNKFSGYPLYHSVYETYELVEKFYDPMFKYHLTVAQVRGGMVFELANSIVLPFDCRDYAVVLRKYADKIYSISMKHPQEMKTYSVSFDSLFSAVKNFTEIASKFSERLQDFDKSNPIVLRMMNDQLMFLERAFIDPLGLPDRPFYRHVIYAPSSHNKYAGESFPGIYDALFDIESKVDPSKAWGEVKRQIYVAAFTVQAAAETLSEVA

IC50 [5]	Structure (SMILES)	CC50 (A549)	CC50 at 120 h [4]	CC50 (MCF7)	CC50 at 120 h [6]	also measured
	CN1/C(=C/C=C/C=C/C2=[N+](CCCCCC(=O)O)c3ccc(S(=O)(=O)[O-])cc3C2(C)C)C(C)(C)c2cc(S(=O)(=O)O)ccc21					CC50 (LNCaP): > 100 µM; Drug uptake [1]: 41.1%; Drug uptake [2]: 98.4%; Drug uptake [3]: 57.5%; CC50 (PC-3): > 100 µM
0.043 µM	[N-]=[N+]=NCCCNC(=O)[C@H](Cc1ccccc1)NC(=O)[C@H](Cc1ccccc1)NC(=O)CCC(=O)NCCCCCC(=O)N(CCCC[C@H](NC(=O)N[C@@H](CCC(=O)O)C(=O)O)C(=O)O)Cc1ccc(Cl)cc1F	> 100 µM	> 100 µM	> 100 µM	> 100 µM	
3.16 µM	[N-]=[N+]=NCCCNC(=O)[C@@H](Cc1ccc(O)cc1)NC(=O)[C@@H](Cc1ccccc1)NC(=O)CCC(=O)NCCCCCC(=O)N(CCCC[C@H](NC(=O)N[C@@H](CCC(=O)O)C(=O)O)C(=O)O)Cc1ccc(Br)cc1					
0.05 µM	[N-]=[N+]=NCCCNC(=O)[C@H](Cc1ccccc1)NC(=O)[C@H](Cc1ccccc1)NC(=O)CCC(=O)NCCCCCC(=O)N(CCCC[C@H](NC(=O)N[C@@H](CCC(=O)O)C(=O)O)C(=O)O)Cc1ccc(Br)cc1	> 100 µM	> 100 µM	> 100 µM	> 100 µM	
0.063 µM	[N-]=[N+]=NCCCNC(=O)[C@H](Cc1ccccc1)NC(=O)[C@H](Cc1ccccc1)NC(=O)CCC(=O)NCCCCCC(=O)N(CCCC[C@H](NC(=O)N[C@@H](CCC(=O)O)C(=O)O)C(=O)O)Cc1ccc(Cl)c(F)c1	> 100 µM	71 µM	> 100 µM	> 100 µM	
0.08 µM	[N-]=[N+]=NCCCNC(=O)[C@@H](Cc1ccc(O)c(Br)c1)NC(=O)[C@@H](Cc1ccccc1)NC(=O)CCC(=O)NCCCCCC(=O)N(CCCC[C@H](NC(=O)N[C@@H](CCC(=O)O)C(=O)O)C(=O)O)Cc1cccc(Cl)c1					
0.038 µM	[N-]=[N+]=NCCCNC(=O)[C@H](Cc1ccccc1)NC(=O)[C@H](Cc1ccccc1)NC(=O)CCC(=O)NCCCCCC(=O)N(CCCC[C@H](NC(=O)N[C@@H](CCC(=O)O)C(=O)O)C(=O)O)Cc1cccc(Cl)c1					
0.294 µM	[N-]=[N+]=NCCCNC(=O)[C@@H](Cc1ccccc1)NC(=O)[C@@H](Cc1ccccc1)NC(=O)CCC(=O)NCCCCCC(=O)N(CCCC[C@H](NC(=O)N[C@@H](CCC(=O)O)C(=O)O)C(=O)O)Cc1ccc(Cl)c(F)c1	> 100 µM	51 µM	> 100 µM	> 100 µM	
0.107 µM	[N-]=[N+]=NCCCNC(=O)[C@@H](Cc1ccc(O)cc1)NC(=O)[C@@H](Cc1ccccc1)NC(=O)CCC(=O)NCCCCCC(=O)N(CCCC[C@H](NC(=O)N[C@@H](CCC(=O)O)C(=O)O)C(=O)O)Cc1cccc(Cl)c1					
0.108 µM	[N-]=[N+]=NCCCNC(=O)[C@@H](Cc1ccc(O)cc1)NC(=O)[C@@H](Cc1ccccc1)NC(=O)CCC(=O)NCCCCCC(=O)N(CCCC[C@H](NC(=O)N[C@@H](CCC(=O)O)C(=O)O)C(=O)O)Cc1ccc(Cl)c(F)c1					
0.028 µM	[N-]=[N+]=NCCCNC(=O)[C@H](Cc1ccccc1)NC(=O)[C@H](Cc1ccccc1)NC(=O)CCC(=O)NCCCCCC(=O)N(CCCC[C@H](NC(=O)N[C@@H](CCC(=O)O)C(=O)O)C(=O)O)Cc1ccccc1	> 100 µM	114 µM	> 100 µM	> 100 µM	
0.027 µM	[N-]=[N+]=NCCCNC(=O)[C@@H](Cc1ccc(O)cc1)NC(=O)[C@@H](Cc1ccccc1)NC(=O)CCC(=O)NCCCCCC(=O)N(CCCC[C@H](NC(=O)N[C@@H](CCC(=O)O)C(=O)O)C(=O)O)Cc1ccc(Cl)cc1					
0.175 µM	[N-]=[N+]=NCCCNC(=O)[C@H](Cc1ccccc1)NC(=O)[C@H](Cc1ccccc1)NC(=O)CCC(=O)NCCCC(=O)N(CCCC[C@H](NC(=O)N[C@@H](CCC(=O)O)C(=O)O)C(=O)O)Cc1ccccc1	> 100 µM	> 100 µM	> 100 µM	> 100 µM	
0.062 µM	[N-]=[N+]=NCCCNC(=O)[C@H](Cc1ccc(O)cc1)NC(=O)[C@H](Cc1ccccc1)NC(=O)CCC(=O)NCCCCCC(=O)N(CCCC[C@H](NC(=O)N[C@@H](CCC(=O)O)C(=O)O)C(=O)O)Cc1ccc(Cl)c(F)c1	> 100 µM	> 100 µM	> 100 µM	> 100 µM	
0.226 µM	[N-]=[N+]=NCCCNC(=O)[C@@H](Cc1ccccc1)NC(=O)[C@@H](Cc1ccccc1)NC(=O)CCC(=O)NCCCCCC(=O)N(CCCC[C@H](NC(=O)N[C@@H](CCC(=O)O)C(=O)O)C(=O)O)Cc1ccc(Cl)cc1					
0.046 µM	[N-]=[N+]=NCCCNC(=O)[C@H](Cc1ccc(O)cc1)NC(=O)[C@H](Cc1ccccc1)NC(=O)CCC(=O)NCCCCCC(=O)N(CCCC[C@H](NC(=O)N[C@@H](CCC(=O)O)C(=O)O)C(=O)O)Cc1ccc(Cl)cc1					
0.046 µM	[N-]=[N+]=NCCCNC(=O)[C@@H](Cc1ccccc1)NC(=O)[C@@H](Cc1ccccc1)NC(=O)CCC(=O)NCCCCCC(=O)N(CCCC[C@H](NC(=O)N[C@@H](CCC(=O)O)C(=O)O)C(=O)O)Cc1cccc(Cl)c1					
0.055 µM	[N-]=[N+]=NCCCNC(=O)[C@H](Cc1ccccc1)NC(=O)[C@H](Cc1ccccc1)NC(=O)CCC(=O)NCCCCCC(=O)N(CCCC[C@H](NC(=O)N[C@@H](CCC(=O)O)C(=O)O)C(=O)O)Cc1ccc(Cl)cc1					
0.017 µM	[N-]=[N+]=NCCCNC(=O)[C@H](Cc1ccc(O)cc1)NC(=O)[C@H](Cc1ccccc1)NC(=O)CCC(=O)NCCCCCC(=O)N(CCCC[C@H](NC(=O)N[C@@H](CCC(=O)O)C(=O)O)C(=O)O)Cc1ccc(Br)cc1	> 100 µM	> 100 µM	> 100 µM	> 100 µM	
	NCCCC[C@H](NC(=O)N[C@@H](CCC(=O)O)C(=O)O)C(=O)O	> 100 µM	> 100 µM	> 100 µM	> 100 µM	
0.089 µM	[N-]=[N+]=NCCCNC(=O)[C@@H](Cc1ccc(O)c(Br)c1)NC(=O)[C@@H](Cc1ccccc1)NC(=O)CCC(=O)NCCCCCC(=O)N(CCCC[C@H](NC(=O)N[C@@H](CCC(=O)O)C(=O)O)C(=O)O)Cc1ccc(Br)cc1					
	[N-]=[N+]=NCCCNC(=O)[C@H](Cc1ccccc1)NC(=O)[C@H](Cc1ccccc1)NC(=O)CCC(=O)NCCCCCC(=O)NCCCC[C@H](NC(=O)N[C@@H](CCC(=O)O)C(=O)O)C(=O)O	> 100 µM	62 µM	> 100 µM	> 100 µM	
0.319 µM	[N-]=[N+]=NCCCNC(=O)[C@@H](Cc1ccccc1)NC(=O)[C@@H](Cc1ccccc1)NC(=O)CCC(=O)NCCCCCC(=O)N(CCCC[C@H](NC(=O)N[C@@H](CCC(=O)O)C(=O)O)C(=O)O)Cc1ccc(Br)cc1	> 100 µM	88 µM	> 100 µM	> 100 µM	
0.003 µM	[N-]=[N+]=NCCCNC(=O)[C@H](Cc1ccc(O)cc1)NC(=O)[C@H](Cc1ccccc1)NC(=O)CCC(=O)NCCCCCC(=O)N(CCCC[C@H](NC(=O)N[C@@H](CCC(=O)O)C(=O)O)C(=O)O)Cc1cccc(Cl)c1	> 100 µM	> 100 µM	> 100 µM	> 100 µM	CC50 (LNCaP): > 100 µM; Ki [5]: 0.001 µM; CC50 (PC-3): > 100 µM
